Data set [1] in a line: RPTLC lipophilicity determination on silica-supported leucaena oil (LO) lipid film. From the text:
(§1) Liquid paraffin in n-hexane (5% w/v) was used as coating solution of silica gel support, to produce the layer which was taken as benchmark. Thin film of liquid paraffin was placed on the silica surface by ascending development of the TLC plates in the coating solution and allowing the plates to air dry afterwards.
(§2) The optimal film thickness was designed by testing the alternative films against array of LP benchmark requirements and constraint. Using nabumetone as model compound and varying the concentration of organic modifier (methanol) in the mobile phase, a plot of linear regression of Rm against methanol fraction was made for LP and all alternative LO layers. Rm was obtained from the expression [drawing 1] where Rf is the chromatographic retardation factor [5]. Retention behavior of nabumetone on LP was compared with its behavior on the alternative LO layers by statistical comparison of the slope (S, specific hydrophobic surface area) and y-intercept, (Rmw, basic lipophilicity parameter) of the regression plot of Rm versus methanol fraction. The retention behavior is described by the regression equation: Rm = Sφ + Rmw (where φ is the methanol fraction). Plate development cycle time for a specific methanol fraction (0.5) was set as design constraint. This was compared by recording the time required for the mobile phase (50% methanol) to traverse 7 cm path length of the various silica-supported layers.
(§3) The engineered lipid film was validated by comparing its performance with the prior art; liquid paraffin film and octadecysilane (ODS) bonded phase, which was selected as reference.
(§4) The computational model employed is a transformation of the planar chromatographic retardation factor Rf according to the following equation: […]
(§5) Linear regression of the Rm values against the fraction of methanol organic modifier in the mobile phase was performed according to the equation: […]
(§6) S, is the specific hydrophobic surface area, while Rmw is the basic lipophilicity parameter calculated from the chromatographic data. The ultimate derived lipophilicity parameter of interest is the isocratic chromatographic hydrophobicity index (φo), which signifies the methanol fraction that will produce half-maximum solute migration on the chromatogram for each compound. […] Derived lipophilicity parameter (φo) values were correlated with Log P and several ChemSketch calculated molecular descriptors to provide quantitative structure property relationships (QSPR) as previously described.

The nature of data set [2]: RPTLC lipophilicity determination on liquid paraffin (LP) film. The following applies: 5% LP film; for S (specific hydrophobic surface area): slope of Rm vs methanol fraction; for Rmw (basic lipophilicity parameter): y-intercept of Rm vs methanol fraction; for φo (isocratic chromatographic hydrophobicity index): φo = -Rmw/S, methanol modifier.
Source text: as §1, §2, §3, §4, §5, §6

Data set [3] can be described thus: RPTLC lipophilicity determination on octadecylsilane (ODS) bonded layer. As to conditions: for S (specific hydrophobic surface area): slope of Rm vs methanol fraction; for φo (isocratic chromatographic hydrophobicity index): φo = -Rmw/S, methanol modifier. As to the method: as §3, §4, §5, §6
For data set [4] the following is noted: ref 31 (ADBA), 32 (NPX), 33 (NBT), 34 (HF); cited from earlier work.
On the set-up of data set [5]: method as in PMID 17767395. As to conditions: clinical use; cited from earlier work.
Where [6] appears, read: 3.75% LO film, slope of Rm vs methanol fraction.
The mark [7] stands for this setting: 3.75% LO film, y-intercept of Rm vs methanol fraction.
Setting [8] is: 3.75% LO film, φo = -Rmw/S, methanol modifier.
Where [9] appears, read: ODS layer, y-intercept of Rm vs methanol fraction.

Here are results for 4 molecules from paper PMC2745359, “Engineering and validation of a novel lipid thin film for biomembrane modeling in lipophilicity determination of drugs and xenobiotics” (Journal of Biological Engineering, 2009).

SMILES strings stand for the structures.

In the case of `COc1ccc2cc(CCC(C)=O)ccc2c1` [Nabumetone, nabumetone], the “Rmw (basic lipophilicity parameter)” value in data set [1] (1.25% LO film) was 1.05; in data set [1] (2.5% LO film), 1.94; in data set [1] (setting [7]) it was 2.58; in data set [1] (5% LO film) it was 3.48; in data set [2], 2.43; in data set [3], 2.77. Besides, the “S (specific hydrophobic surface area)” value in data set [1] (1.25% LO film) was -2.33; in data set [1] (2.5% LO film), -3.14; in data set [1] (setting [6]) it was -3.95; in data set [1] (5% LO film), -4.67; in data set [2] it was -3.48; in data set [3] (ODS layer), -3.13. In addition, the “φo (isocratic chromatographic hydrophobicity index)” value in data set [1] (1.25% LO film) is 0.45; in data set [1] (2.5% LO film), 0.62; in data set [1] (setting [8]) it was 0.66; in data set [1] (5% LO film), 0.75; in data set [2], 0.70; in data set [3] (ODS layer), 0.89. For the same molecule, the “Log P (octanol/water)” value in data set [4] is on record as 3.27.

Regarding `Nc1c([N+](=O)[O-])cc(C(=O)O)cc1[N+](=O)[O-]` [ADBA, 4-amino-3,5-dinitrobenzoic acid], the “S (specific hydrophobic surface area)” value in data set [1] (setting [6]) is reported as -8.84; in data set [2], -5.99; in data set [3] (ODS layer), -1.41. For the same molecule, the results for the “Rmw (basic lipophilicity parameter)” value in data set [1] (setting [7]) and in data set [3] (setting [9]) were -0.646 and -0.102, respectively. Further, the “φo (isocratic chromatographic hydrophobicity index)” value in data set [1] (setting [8]) is -0.073; in data set [2], -0.081; in data set [3] (ODS layer), -0.073. Further, in data set [4], the “Log P (octanol/water)” value was -1.50.

On to `CC(C)(C)c1ccc(C(O)CCCN2CCC(C(O)(c3ccccc3)c3ccccc3)CC2)cc1` (stereo not drawn) [Terfenadine, terfenadine], for which the “Cardiotoxicity (QT prolongation)” value in data set [5] is reported as “withdrawn from clinical use because of cardiotoxicity”.

In the case of `CCCCN(CCCC)CCC(O)c1cc2c(Cl)cc(Cl)cc2c2cc(C(F)(F)F)ccc12` (stereo not drawn) [Halofantrine, halofantrine], the “S (specific hydrophobic surface area)” value is -8.13 in data set [1] (setting [6]), -6.54 in data set [2] and -4.55 in data set [3] (ODS layer). Moreover, the “Rmw (basic lipophilicity parameter)” value is on record as 8.40 in data set [1] (setting [7]), 6.76 in data set [2] and 4.94 in data set [3] (setting [9]). The “φo (isocratic chromatographic hydrophobicity index)” value in data set [1] (setting [8]) is given as 1.03; in data set [2], 1.03; in data set [3] (ODS layer), 1.09. Besides, in data set [4], the “Log P (octanol/water)” value was 3.25.
